Reference: patent publication US20260242390A1, “TOTAL SYNTHESES OF PORTIMINE A AND ANALOGUES THEREOF AS SMALL MOLECULE MODULATORS OF NMD3” (priority 2023, published 2026)
pIC50: −log10 of the molar value. “Also recorded” adds a separate entry of the source. Like-named read-outs stand apart in the source and are kept apart here.

How the values were obtained:
Jurkat cells = assay: Cell viability / toxicity in Jurkat cells; type: cell-based, human; details: for pIC50: Homo sapiens, read-out: IC50 to Jurkat cells; for cell toxicity in leukemia (Jurkat) cancer cell line: 36-hour treatment; for toxicity to Jurkat cells: pM-nM concentration range (0.23 pM to 1 uM), 12 hr
Text: FIG. 1. Portimine A is non-toxic to primary human PBMCs. Portimine A and its functional analogs show stereo-selective acute toxicity in cancer cells. […] (B) Structure of portimine related analogs: phenyl-portimine A (Ph-PA, 36) and epi-portimine A (ePA, 38). Structure of fully functionalized portimine A-based epimeric probe pair: portimine A-diazirine-alkyne (PA-DA, 35-2) and epi-portimine A-diazirine-alkyne (ePA-DA, 35-1). (C) Cell viability analysis of portimine A and analogs. […] All presented data as mean of biological replicated experiments (n=3). […]
Structurally related negative control ePA and PB are non-toxic in all cell types in the current concentrate range. PBMCs (25k per well), Jurkat (10k per well). […]
• 1) Portimine A and its functional analogs show stereo-selective acute toxicity in cancer cells (FIG. 1). […] (B) Structure of portimine related analogs: phenyl-portimine A (Ph-PA, 36) and epi-portimine A (ePA, 38). Structure of fully functionalized portimine A-based epimeric probe pair: portimine A-diazirine-alkyne (PA-DA, 35-2) and epi-portimine A-diazirine-alkyne (ePA-DA, 35-1). (C) Cell viability analysis of portimine A and analogs. […] All presented data as mean of biological replicated experiments (n=3). […] Structurally related negative control ePA and PB are non-toxic in all cell types in the current concentrate range. PBMCs (25k per well), Jurkat (10k per well). […] Cell cycle analysis in Jurkat cells (FIG. 2). […] (A) PA and Ph-PA show less toxic to healthy PBMCs compared to Jurkat cells. […] (B) Immunoblot of caspase-3 in Jurkat and PBMCs with indicated conditions. […] (A) Pharmacokinetic studies of mouse intraperitoneal (i.p.) and oral (p.o.) administration for portimine (n=3). […] Impact of PA [0.3 or 1 mg/kg intraperitoneally] on MC38 tumor growth in WT mice (n=6). (C) Kaplan-Myer survival curve of WT MC38 tumor-bearing mice (n=6) after treatment with PA as described in (D). Mice were euthanized when tumor area exceeded 2000 mm^3. Statistical analysis was performed using ANOVA analysis followed by multiple comparisons test, * p≤0.05. Treatment condition: Jurkat (60 M per condition); PA-DA/ePA-DA concentration: 0.5 uM, PA or ePA: 5 uM; Incubate with probe with or without competitors (PA, ePA) for 30 min; UV irradiated for 20 min. (0.5 uM PA-DA add a no-UV condition), Standard pulldown & biotin-enrichment and western blot analysis (Elute condition: 2× sample buffer+500 uM biotin, boil for 20 mins); Primary antibody NMD3 (ProteinTech, 1:150), Actin (BioRad, 1:10000). […] Chemical proteomic profiling with PA-DA in Jurkat cells (A, B, C, G) and HCC1806 cells (D, E, F, H) show NMD3 is the primary target candidate of portimine A. […] (I, J) Confirmation of PA-DA engagement of NMD3 in Jurkat and HCC1806 cells. […] Treatment condition: Jurkat (5M per well). Portimine A concentration: 2 nM-1000 nM; In total treat cell for 12 hours. […] Protein degradation of p53, Mcl1, Bid, Bim, Noxa can be rescued by MG132 or Epoxomicin. (B) NMD3 mRNA increased after PA treatment, but not ePA control compound. […] (A) Immunoblot showing reduced NMD3 levels in shNMD3 Jurkat and HeLa cells. […] Data represents mean±SD of biologically replicated experiments (n=3). […] Cell lysates were fractionated by sucrose gradient (5-50%) and each fraction were analyzed by western blot. eIF6 levels increase in 60S subunit fraction and decrease in ribosome-free fractions after PA treatment. RPS6, a 40S and polysome subunits marker, is decreased in polysome fractions after PA treatment. Results are representative of three independent experiments. […] Relative protein levels in each fraction were normalized to the peak fraction of the indicated protein from the DMSO cells and plotted. Data represents mean±SD of biologically replicated experiments (n=3). Statistical analysis was performed using multiple unpaired Student t-test. * p≤0.05; ** p≤0.01; *** p≤0.005; **** p≤0.0001. […]

HCC1806 = assay: Cell toxicity in HCC1806 cells; type: cell-based, human; details: 36-hour treatment

SMILES | pIC50 (Jurkat cells; after 12 hr, Jurkat 10k per well, 0.23 pM to 1 uM) | cell toxicity in leukemia (Jurkat) cancer cell line (Jurkat cells) | toxicity to Jurkat cells (Jurkat cells) | cell toxicity in breast (HCC1806) cancer cell line (HCC1806) | pIC50 (Jurkat cells; Jurkat, 12 h)
CC1C[C@@H](O)C(=O)[C@H]2O[C@]3(CC[C@@H]1O3)CC(O)C1=NCC[C@@]13CCC(c1ccccc1)=C[C@H]23 (some centres unmarked) [Ph-PA, phenyl-portimine A] | ~8.70 |  |  |  | 
C=CC1=C[C@@H]2[C@@H]3OC4(CC[C@H](O4)C(C)C[C@@H](O)C3=O)CC(=O)C3=NCC[C@@]32CC1 (some centres unmarked) [PB, portimine B] |  | minimal effects | non-toxic; also recorded: non-toxicity | minimal effects | 
C=CC1=C[C@@H]2[C@@H]3O[C@]4(CC[C@H](O4)C(C)C[C@@H](O)C3=O)CC(O)C3=NCC[C@@]32CC1 (some centres unmarked) [PA, portimine A] |  |  |  |  | ~8.70
C=CC1=C[C@@H]2[C@@H]3O[C@]4(CC[C@H](O4)C(C)C[C@@H](O)C3=O)C[C@@H](O)C3=NCC[C@@]32CC1 (stereo partly drawn) [ePA, epi-portimine A] |  | minimal effects | non-toxic; also recorded: non-toxicity | minimal effects | 
